This note sets out measurements from patent US11622988B2, “Method for reducing fat accumulation by using tetramethylisoscutellarein” (TCI CO., LTD., priority 2018, dated 2023).

The subject of this assay is mouse bone marrow stromal cell OP9. The experiment in a line: Oil-red O staining of fat accumulation in differentiated OP9 cells. It is filed as cell-based. Particulars: 10 μg/mL, incubated 7-10 days, O.D. 510 nm. The procedure: First, 8×10^4 mouse bone marrow stromal cell OP9 (ATCC® CRL-2749™) was seeded with 500 μL of pre-adipocyte expansion medium (supplemented with 90% minimum essential medium alpha medium (Gibco), […] (Gibco) and 1% penicillin/streptomycin (Gibco)) in a 24-well plate, and incubated at 37° C. for 7 days. Fresh differentiation medium (supplemented with 90% minimum essential medium alpha medium, 20% fetal bovine serum, and 1% penicillin/streptomycin) was replaced every three days. After 7 days, lipid droplet formation was observed using microscopy (ZEISS) to make sure the cells are fully differentiated.
Thereafter, five groups of OP9 cells (i.e. an experimental group, three comparative groups (comparative group 1 to comparative group 3) and a control group) were prepared. […]
The oil droplet was dissolved using 100% isopropanol, and the plate was put on shaker and incubation for 10 min. A volume of 100 μL was taken to 96-well plate for measuring the O.D ratio (510 nm) with the ELISA reader (BioTek).
The statistical significance of the differences between each group was determined by Student's t-test in Microsoft Excel. […]

Each structure is given as a SMILES string.

Consider `COc1ccc(-c2cc(=O)c3c(OC)cc(OC)c(OC)c3o2)cc1` [tetramethylisoscutellarein], for which the “oil red relative percentage, lower than the control group” value turned out to be 28%.
